Test results reported in patent US9510595B2, “Pesticidal mixtures” (Syngenta Participations AG, priority 2012, dated 2016).

What was measured:
[1] = test system: Heliothis virescens (Tobacco Budworm); test: Heliothis virescens egg/larval mortality on artificial diet, 24-well plate; format: in vivo; conditions: for 2-7 Observe control %: 2-7 alone; for SPAT observed control %: SPAT alone; for 1-1 observed control %: 1-1 alone; for DMET observed control %: DMET alone
Method: Heliothis virescens (Tobacco Budworm)
Eggs (0-24 h old) are placed in 24-well microtiter plate on artificial diet and treated with test solutions (DMSO) by pipetting. After an incubation period of 4 days, samples are checked for larval mortality.
(§1) When a compound applied alone gave no control at a particular rate, it is assumed that lower rates of that compound alone also give no control. DMET=deltamethrin, SPAT=spirotetramat, 1-1 is compound 1 in Table 1, 2-7 is compound 7 in Table 2.

[2] = test system: Tetranychus urticae (Two-Spotted Spider Mite); test: Tetranychus urticae mixed population mortality on sprayed bean leaf discs; format: in vivo; conditions: for 2-7 observed control %: 2-7 alone; for SPAT observed control %: SPAT alone
Excerpt: Tetranychus urticae (Two-Spotted Spider Mite)
Bean leaf discs on agar in 24-well microtiter plates are sprayed with test solutions (DMSO). After drying, the leaf discs are infested with mite populations of mixed ages. 8 days later, discs are checked for mixed population mortality.
as §1

Q: Which results are given for `N#Cc1cc(C2=NCC(c3cc(Cl)c(Cl)c(Cl)c3)(C(F)(F)F)C2)ccc1-n1cncn1` (racemic) [2-7]?
A: 2-7 Observe control % ([1]; 0.025 ppm): 0%; 2-7 Observe control % ([1]; 0.05 ppm): 10%; 2-7 Observe control % ([1]; 0.1 ppm): 55%; 2-7 Observe control % ([1]; 0.2 ppm): 80%; 2-7 Observe control % ([1]; 0.4 ppm): 90%; 2-7 observed control % ([2]; 0.187 ppm): 0%; 2-7 observed control % ([2]; 0.375 ppm): 0%; 2-7 observed control % ([2]; 0.75 ppm): 25%; 2-7 observed control % ([2]; 1.5 ppm): 75%; 2-7 observed control % ([2]; 3.0 ppm): 80%

Q: Which “SPAT observed control %” value ([1]; 1.56 ppm) does the source give for `CCOC(=O)OC1=C(c2cc(C)ccc2C)C(=O)N[C@]12CC[C@@H](OC)CC2` [SPAT, spirotetramat] here?
A: 0%

Q: And the “SPAT observed control %” value ([1]; 3.12 ppm)?
A: 0%

Q: What about the “SPAT observed control %” value ([1]; 3.125 ppm) of the same molecule?
A: 0%

Q: And the “SPAT observed control %” value ([1]; 6.25 ppm)?
A: 0%

Q: And the “SPAT observed control %” value ([1]; 12.5 ppm)?
A: 0%

Q: And the “SPAT observed control %” value ([1]; 25 ppm)?
A: 0%

Q: And the “SPAT observed control %” value ([1]; 50 ppm)?
A: 0%

Q: What about the “SPAT observed control %” value ([1]; 100 ppm) of the same molecule?
A: 0%

Q: And the “SPAT observed control %” value ([1]; 200 ppm)?
A: 60%

Q: And the “SPAT observed control %” value ([2]; 1.56 ppm)?
A: 0%

Q: What about the “SPAT observed control %” value ([2]; 3.125 ppm) of the same molecule?
A: 0%

Q: What about the “SPAT observed control %” value ([2]; 12.5 ppm) of the same molecule?
A: 65%

Q: What about the “SPAT observed control %” value ([2]; 25 ppm) of the same molecule?
A: 80%

Q: What about the “SPAT observed control %” value ([2]; 50 ppm) of the same molecule?
A: 85%

Q: And the “SPAT observed control %” value ([2]; 100 ppm)?
A: 85%

Q: And the “SPAT observed control %” value ([2]; 200 ppm)?
A: 85%

Q: Which “1-1 observed control %” value ([1]; 0.78 ppm) does the source give for `N#Cc1cc(C2=NOC(c3cc(Cl)cc(Cl)c3)(C(F)(F)F)C2)ccc1-n1cncn1` (racemic) [1-1] here?
A: 0%

Q: What about the “1-1 observed control %” value ([1]; 1.56 ppm) of the same molecule?
A: 0%

Q: And the “1-1 observed control %” value ([1]; 3.125 ppm)?
A: 45%

Q: And the “1-1 observed control %” value ([1]; 6.25 ppm)?
A: 85%

Q: What about the “1-1 observed control %” value ([1]; 12.5 ppm) of the same molecule?
A: 85%

Q: What about the “1-1 observed control %” value ([1]; 25 ppm) of the same molecule?
A: 90%

Q: How did the “DMET observed control %” value ([1]; 0.0125 ppm) turn out when `CC1(C)[C@H](C(=O)O[C@H](C#N)c2cccc(Oc3ccccc3)c2)[C@@H]1C=C(Br)Br` [DMET, deltamethrin] was run?
A: 0%

Q: What about the “DMET observed control %” value ([1]; 0.025 ppm) of the same molecule?
A: 0%

Q: And the “DMET observed control %” value ([1]; 0.05 ppm)?
A: 0%

Q: And the “DMET observed control %” value ([1]; 0.1 ppm)?
A: 0%

Q: What about the “DMET observed control %” value ([1]; 0.2 ppm) of the same molecule?
A: 0%

Q: What about the “DMET observed control %” value ([1]; 0.4 ppm) of the same molecule?
A: 0%

Q: And the “DMET observed control %” value ([1]; 0.8 ppm)?
A: 0%
